Where a name gives a salt, the structure may show the parent alone. Read-outs that look alike come from different tables or passages of the source.
What was measured:
dogs = experiment: Pentobarbital-induced heart failure in anaesthetized dogs, intraduodenal administration; format: in vivo; details: 1 mg/kg I.D.; for Aortic capacity / Bradycardia and hypotension induced by pentobarbital / Inotropic effect: after 20 minutes
From the text: In addition to the activity pattern described above the compounds of formula I, in which R1 and R2 both represent hydrogen have a particularly beneficial effect in the treatment of heart failure. The latter activity has been tested using a technique derived from Deitchman and Snyder, Arch.Int. Pharmacodyn. 250, 65 (1981).
After having been anaesthesized dogs under articicial respiration are connected with pieces of apparatus for continuous monitoring the left intraventicular pressure, the dP/dt max, the amplitude of the left ventricular contraction, the aortic capacity, the heart frequency and the arteric pressure.
Heart failure is induced by intravenous administration of pentobarbital at a dose of 20 mg per kg body weight per minute until a decrease of 50% of dP/dt max is obtained after which this level is maintained by pentobarbital administration at a dose of 0.4 mg/kg/min. Ten minutes after the beginning of this heart failure effect the products to be tested are administered. The results are compared with those obtained using Dopamine and Dobutamine as reference compounds.
Then the test was repeated by administering the products intraduodenally (I.D.). Dopamine and Dobutamine were administered at a dose of 10 mg/kg I.D. and the compounds of the invention at a dose of 1 mg/kg.

mice [1] = experiment: Spontaneous motility; format: in vivo; details: Mus musculus, 20 min, read-out: Spontaneous motility, variation; for change in vivo at 25 mg/kg: dose 25 mg.kg^-1
Experimental: (§1) The acute toxicity and central nervous system activity of the compounds of the invention were investigated in mice using various test-models. These tests were carried out in accordance with the procedures summarised below.
Groups of 4 mice prepared as above are placed in circular corridors intersected by infrared beams, making it possible to count the number of movements made by the animals. The number of movements is summed up after 20 minutes and the results are expressed as the percentage variation relative to the group of control animals, which have only received the vehicle (gum arabic/water).

[2] = Acute toxicity (mortality after 24 hours); details: mouse, in vivo, po
Experimental: as §1
Male mice of the OF1, IFFA, CREDO strain and having an average weight of 22±1 g, receive, by oesophagial intubation, a solution of arabic gum and distilled water (1/2-1/2) containing the compound to be studied, at a rate of 0.25 ml per 20 g of body weight. The symptomatology of the intoxication was observed and the mortality was recorded after 24 hours.

mice [3] = experiment: Hypnotic activity (sleep induction time, sleep time); format: in vivo
Experimental: as §1
Mice receive, by intraperitoneal administration, 0.25 ml per 20 g of body weight of a solution consisting of arabic gum and of 0.154M NaCl solution (1/2-1/2) containing 12.5 mg.kg.^-1 of the compound to be studied, and the "sleep induction time"--the time taken for the loss of righting reflex to appear after the animal has been placed in the dorsal decubitus position--and the "sleep time"--the duration of the above loss of reflex--are then noted. For this test, pentobarbital is given as a reference, administered at a dose of 50 mg.kg.^-1.

[4] = dose 50 mg.kg^-1, relative to control animals, 20 minutes
[5] = mice, oesophagial intubation, mortality after 24 hours, read-out: Estimated LD 50
[6] = relative to control animals, 20 minutes
[7] = pentobarbital reference, 50 mg.kg^-1

Cn1c(=O)oc2cc(CCN)ccc21 [Compound 2, 3-Methyl-6-(2-aminoethyl)-benzoxazolinone(hydrochloride)]
Duration of the effects (dogs): at least 60 minutes | Aortic capacity (dogs): increase of the aortic capacity | Bradycardia and hypotension induced by pentobarbital (dogs): recovery of the bradycardia and the hypotension induced by pentobarbital | Inotropic effect (dogs): strong positive inotropic effect

Cn1c(=O)oc2cc(CCN3CCN(c4cccc(C(F)(F)F)c4)CC3)ccc21 [Compound 3]
change in vivo at 50 mg/kg (mice [1]; [4]): -97.5% | LD50 at 24 h [2]: 1000 mg/kg

Cn1c(=O)oc2cc(CCN3CCOCC3)ccc21 [Compound 4]
change in vivo at 12.5 mg/kg (mice [1]; dose 12.5 mg.kg^-1, relative to control animals, 20 minutes): -11.9% | LD50 at 24 h [2, 5]: 1200 mg/kg

Cn1c(=O)oc2cc(CCN3CCN(c4ncccn4)CC3)ccc21 [Compound 7]
change in vivo at 50 mg/kg (mice [1]; [4]): -69.9% | LD50 at 24 h [2]: 1200 mg/kg

O=c1[nH]c2ccc(CCN3CCN(c4cccc(C(F)(F)F)c4)CC3)cc2o1 [Compound 8]
change in vivo at 25 mg/kg (mice [1]; [6]): -93.5% | LD50 at 24 h [2]: 1000 mg/kg

COc1ccccc1N1CCN(CCc2ccc3c(c2)oc(=O)n3C)CC1 [Compound 9, 3-Methyl-6-(2-[4-(2-methoxyphenyl)-piperazin-1-yl]-ethyl)-benzoxazolinone]
change in vivo at 6.25 mg/kg (mice [1]): -93.2% | Hypnotic activity, sleep induction time (mice [3]; 12.5 mg.kg^-1, intraperitoneal): 18 ± 7.5 min | Hypnotic activity, sleep time (mice [3]; 12.5 mg.kg^-1, intraperitoneal): 46.2 ± 15 min | LD50 at 24 h [2, 5]: 600 mg/kg

COc1ccccc1N1CCN(CCc2ccc3[nH]c(=O)oc3c2)CC1 [Compound 10, 6-(2-[4-(2-methoxyphenyl)-piperazin-1-yl]-ethyl)-benzoxazolinone]
change in vivo at 6.25 mg/kg (mice [1]): -99.3% | Hypnotic activity, sleep induction time (mice [3]; 12.5 mg.kg^-1, intraperitoneal): 18.2 ± 4.3 min | Hypnotic activity, sleep time (mice [3]; 12.5 mg.kg^-1, intraperitoneal): 86 ± 15 min | LD50 at 24 h [2, 5]: 1000 mg/kg

CNCCc1ccc2[nH]c(=O)oc2c1 [Compound 12]
change in vivo at 50 mg/kg (mice [1]): -28% | LD50 at 24 h [2, 5]: 1200 mg/kg

NCCc1ccc2[nH]c(=O)oc2c1 [Compound 15]
change in vivo at 50 mg/kg (mice [1]): -23.2% | LD50 at 24 h [2, 5]: 1200 mg/kg | Aortic capacity (dogs): increase of the aortic capacity | Bradycardia and hypotension induced by pentobarbital (dogs): recovery of the bradycardia and the hypotension induced by pentobarbital | Inotropic effect (dogs): strong positive inotropic effect

Cn1c(=O)oc2cc(CCNC3CC3)ccc21 [Compound 16]
change in vivo at 50 mg/kg (mice [1]): -34.4% | LD50 at 24 h [2, 5]: 600 mg/kg

O=c1[nH]c2ccc(CCN3CCN(c4ncccn4)CC3)cc2o1 [Compound 17]
change in vivo at 25 mg/kg (mice [1]; [6]): -62.8% | LD50 at 24 h [2]: 480 mg/kg

Cn1c(=O)oc2cc(CCN3CCN(c4ccc(F)cc4)CC3)ccc21 [Compound 18, 3-Methyl-6-(-[4-(4-fluorophenyl)-piperazin-1-yl]-ethyl)-benzoxazolinone]
change in vivo at 6.25 mg/kg (mice [1]): -98.8% | Hypnotic activity, sleep induction time (mice [3]; 12.5 mg.kg^-1, intraperitoneal): 26.9 ± 6 min | Hypnotic activity, sleep time (mice [3]; 12.5 mg.kg^-1, intraperitoneal): 132 ± 25 min | LD50 at 24 h [2, 5]: 1000 mg/kg

O=c1[nH]c2ccc(CCN3CCN(c4ccc(F)cc4)CC3)cc2o1 [Compound 19]
change in vivo at 6.25 mg/kg (mice [1]): -97% | Hypnotic activity (in words) (mice [3]; 12.5 mg.kg^-1, intraperitoneal): strong hypnotic activity | Hypnotic activity, sleep induction time (mice [3]; 12.5 mg.kg^-1, intraperitoneal): 15.1 ± 2 min | Hypnotic activity, sleep time (mice [3]; 12.5 mg.kg^-1, intraperitoneal): 78 ± 16 min | LD50 at 24 h [2, 5]: 1000 mg/kg

CCCC(C)C1(CC)C(=O)NC(=O)NC1=O (stereo not drawn) [pentobarbital, reference compound]
Hypnotic activity, sleep induction time (reference) (mice [3]; [7]): 9.5 ± 2.2 min | Hypnotic activity, sleep time (reference) (mice [3]; [7]): 48 ± 7 min
